Source: patent US20250049740A1, “COMPOUND AND USE THEREOF IN PREPARATION OF MEDICAMENT FOR TREATING ALZHEIMER'S DISEASE” (priority 2024, published 2025)

Legend:
Format in all cases: in vivo, mouse
wild-type mice C57BL/6J [1] = assay: Y maze test, wild-type mice given OLDA / OLDA plus formula I
Method: (§1) 6-week-old female wild-type mice C57BL/6J were divided into a control group injected with normal saline (Ctrl), a diseased group (injected with OLDA), and a treatment group (Formula I-OLDA). The administration was carried out by intraperitoneal injection, and the diseased group (OLDA, 0.5 mg/kg to 1.5 mg/kg), the control group (injected with normal saline, the volume of which was equal to that in the diseased group), and the treatment group (0.5 mg/kg to 1.5 mg/kg of OLDA, and 0.5 mg/kg to 1.5 mg/kg of formula I, prepared into a mixed solution for administration) were all administered once a day by injection for 8 consecutive weeks. After administration, the learning and memory ability of the mice in each group was evaluated by Y maze and Morris water maze tests.

wild-type mice C57BL/6J [2] = assay: Morris water maze test, wild-type mice given OLDA / OLDA plus formula I; details: for number of times of crossing the original platform location: platform removed
Method: as §1

Aβ and p-Tau181 [3] = assay: IHC of AD-related biochemical markers in brain tissue (hippocampus), wild-type mice
Method: as §1
(§2) According to the standard operating procedure of mouse brain anatomy, the mice in the control group, diseased group and treatment group in Example 3 were sacrificed, and their brain tissues and colon tissues were collected respectively and cryopreserved at −80° C.
(§3) The brain tissues of the mice in the diseased group and control group in Example 4 were examined by IHC technology for AD-related biochemical markers, and examined by IHC technology for the related markers of brain neuroinflammation.
The brain tissues of the mice in the treatment group in Example 4 were examined by IHC technology for AD-related biochemical markers and compared with the diseased group.

[4] = test system: IBA-1 and GFAP positive cells; assay: IHC of brain neuroinflammation markers, wild-type mice
Method: as §1, §2, §3
The brain tissues of the mice in the treatment group in Example 4 were examined by IHC technology for the related markers of brain neuroinflammation and compared with the diseased group.

colon tissue [5] = assay: HE staining of colon tissue (colonic epithelium histopathology), wild-type mice
Method: as §1, with “tests. According to the standard operating procedure of mouse brain anatomy, the mice in the control group, diseased group and treatment group in Example 3 were sacrificed, and their brain tissues and colon tissues were collected respectively and cryopreserved at −80° C. The colon tissues in the diseased group and control group in Example 4 were examined by HE staining technology for colonic epithelium histopathology. The colon tissues of the mice in the treatment group in Example 4 were examined by HE staining technology for colonic epithelium histopathology and compared with the diseased group.” for “tests.”

3×Tg mice (AD mice) [6] = assay: Y maze test, 3×Tg mice (AD mice) injected with formula I; details: 3×Tg mice injected with a composition containing formula I vs control group injected with normal saline
From the text: (§4) 3×Tg mice (AD mice) in Example 2 were directly injected with a composition containing formula I (treatment group).

3×Tg mice (AD mice) [7] = assay: Morris water maze test, 3×Tg mice (AD mice) injected with formula I; details: 3×Tg mice injected with a composition containing formula I vs control group injected with normal saline
From the text: as §4

Aβ and p-Tau181 [8] = assay: AD markers in hippocampus, 3×Tg mice injected with formula I; details: 3×Tg mice injected with a composition containing formula I vs control group injected with normal saline
From the text: as §4

[9] = test system: IBA-1 and GFAP positive cells; assay: Brain neuroinflammation markers, 3×Tg mice injected with formula I; details: 3×Tg mice injected with a composition containing formula I vs control group injected with normal saline
From the text: as §4

colon tissue [10] = assay: Colon tissue histopathology, 3×Tg mice injected with formula I; details: 3×Tg mice injected with a composition containing formula I vs control group injected with normal saline
From the text: as §4

[11] = OLDA 0.5 mg/kg to 1.5 mg/kg intraperitoneal once a day for 8 weeks, diseased group vs control group (normal saline)
[12] = OLDA diseased group vs control group
[13] = treatment group (OLDA and formula I, each 0.5 mg/kg to 1.5 mg/kg, mixed solution, intraperitoneal once a day, 8 weeks) vs diseased group (OLDA)
[14] = treatment group (OLDA and formula I) vs diseased group (OLDA)

Structure (SMILES): CCCCCCCC/C=C\CCCCCCCC(=O)NCCc1ccc(O)c(O)c1 [OLDA, N-oleoyl-dopamine, reference compound]
- spontaneous alternation rate (wild-type mice C57BL/6J [1]; [11]): significantly reduced
- total number of arm entries (wild-type mice C57BL/6J [1]; [11]): significantly reduced
- time it took to find the platform (escape latency) (wild-type mice C57BL/6J [2]; [11]): significantly prolonged
- number of times of crossing the original platform location (wild-type mice C57BL/6J [2]; OLDA 0.5 mg/kg to 1.5 mg/kg intraperitoneal once a day for 8 weeks, diseased group vs control group): significantly reduced
- area of Aβ in the hippocampus (Aβ and p-Tau181 [3]; [12]): significantly increased
- area of p-Tau181 in the hippocampus (Aβ and p-Tau181 [3]; [12]): significantly increased
- number of GFAP positive cells [4, 12]: increased
- number of IBA-1 positive cells [4, 12]: increased
- inflammatory cells in the colon tissue (colon tissue [5]; [12]): infiltrated into muscularis mucosa
- number of crypts (colon tissue [5]; [12]): decreased

Structure (SMILES): COc1cccc(NC(=O)/C=C/c2ccc(Cl)cc2)c1 [formula I]
- spontaneous alternation rate (wild-type mice C57BL/6J [1]; [13]): significantly increased
- total number of arm entries (wild-type mice C57BL/6J [1]; [13]): significantly increased
- number of times of crossing the original platform location (wild-type mice C57BL/6J [2]; [14]): significantly increased
- time it took to find the platform (escape latency) (wild-type mice C57BL/6J [2]; [13]): significantly reduced
- area of Aβ in the hippocampus (Aβ and p-Tau181 [3]; [14]): significantly decreased
- area of p-Tau181 in the hippocampus (Aβ and p-Tau181 [3]; [14]): significantly decreased
- number of GFAP positive cells [4, 14]: decreased
- number of IBA-1 positive cells [4, 14]: decreased
- inflammatory cells in the colon tissue (colon tissue [5]; [14]): infiltrated into muscularis mucosae
- number of crypts (colon tissue [5]; [14]): increased
- spontaneous alternation rate (3×Tg mice (AD mice) [6]): significantly increased
- total number of arm entries (3×Tg mice (AD mice) [6]): significantly increased
- time it took to find the platform (escape latency) (3×Tg mice (AD mice) [7]): significantly reduced
- number of times of crossing the original platform location (3×Tg mice (AD mice) [7]; platform removed): significantly reduced
- area of Aβ in the hippocampus (Aβ and p-Tau181 [8]): decreased
- area of p-Tau181 in the hippocampus (Aβ and p-Tau181 [8]): decreased
- number of GFAP positive cells [9]: decreased
- number of IBA-1 positive cells [9]: decreased
- inflammatory cells in the colon tissue (colon tissue [10]): infiltrated into muscularis mucosae
- number of crypts (colon tissue [10]): increased
